# Measurements from US20250304620A1, “ANTIMICROBIAL PEPTIDE AND APPLICATION THEREOF” (priority 2023, published 2025).
# Marks after values point to notes of the source that are not given here. Non-standard residues stand in square brackets, D forms with d. Residues, ends and D or L forms follow the SMILES beside them. dPhe(4-Br) = N[C@H](Cc1ccc(Br)cc1)C(=O)O; d2Nal = N[C@H](Cc1ccc2ccccc2c1)C(=O)O; dNle = CCCC[C@@H](N)C(=O)O
# Key:
# [1] = test system: Staphylococcus aureus (NRS 384); assay: microbe, parasite or virus in culture; type: cell-based; conditions: NRS 384
# Summary of the method: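 MICs were read against S. aureus strain NRS 384 using twofold serial dilution by CLSI microdilution rules. Levofloxacin and Cbf-K16 were the reference controls, and the test was repeated 5 times in parallel.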
# [2] = test system: Bacillus subtilis ATCC 6633; type: cell-based
# Summary of the method: (§1)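 MICs were determined by serial twofold dilution in microdilution format, following CLSI antimicrobial susceptibility testing standards. Each determination was repeated 5 times in parallel.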
# [3] = test system: Candida albicans ATCC MYA-2876; type: cell-based
# Summary of the method: as §1
# [4] = test system: Candida glabrata ATCC 15126; type: cell-based
# Summary of the method: as §1
# Candida krusei ATCC 6258 = type: cell-based
# Summary of the method: as §1
# [5] = test system: Candida tropicalis ATCC 750; type: cell-based
# Summary of the method: as §1
# Candida utilis ATCC 9950 = type: cell-based
# Summary of the method: as §1
# [6] = test system: Corynebacterium ATCC 7715; type: cell-based
# Summary of the method: as §1
# Enterococcus ATCC 29212 = type: cell-based
# Summary of the method: as §1
# [7] = test system: Escherichia coli ATCC 25922; type: cell-based
# Summary of the method: as §1
# [8] = test system: Klebsiella pneumoniae ATCC 700603; type: cell-based
# Summary of the method: as §1
# [9] = test system: Pseudomonas aeruginosa ATCC 27853; type: cell-based
# Summary of the method: as §1
# [10] = test system: Salmonella typhimurium ATCC 14028; type: cell-based
# Summary of the method: as §1
# [11] = test system: Serratia marcescens ATCC 29021; type: cell-based
# Summary of the method: as §1
# [12] = test system: Staphylococcus aureus ATCC 25923; type: cell-based
# Summary of the method: as §1
# [13] = test system: Trichophyton ATCC MYA-4438; type: cell-based
# Summary of the method: as §1
# [14] = test system: Shigella flexneri ATCC 12022; assay: MIC against clinically common bacterial strain; type: cell-based
# Summary of the method: as §1
# [15] = test system: Staphylococcus aureus (NRS 384); conditions: NRS 384, 3 h
# Experimental: Trypsin (250 U/mg, pH=8.0) and AMPs (LV-1 to LV-30) were mixed in a ratio of 1:10 (w/w) and added to a reaction buffer (0.2 M sodium phosphate, 1 mM CaCl2), pH 7.5), and then incubated at 37° C. for 3 h.
# [16] = test system: Escherichia coli ATCC 25922; assay: Oral formulations on mice with systemic bacterial infection; type: in vivo, ICR mice; conditions: three times a day for 7 days; for Number of mice that died on each day after infection: day 4 / Number of mice that died on each day after infection: day 5 / Number of mice that died on each day after infection: day 6 / Number of mice that died on each day after infection: day 7 / Number of mice that died on each day after infection: day 8 / Average survival times (Days): n = 10; for Average survival times (Days): observed for 14 d
# Summary of the method: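 Survival time and deaths were logged over a 14 d observation after oral gavage dosing (by body weight, thrice daily, 7 days, starting right after infection). Model: mixed-sex ICR mice, n=10 per group, intraperitoneal injection of E. coli ATCC 25922 suspension (0.2 mL, 1×10^7 CFU/mL).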
# [17] = Serum stability assay (residual level by RP-HPLC); conditions: human
Compound,MIC against Staphylococcus aureus (NRS 384) [1] [µg/mL],MIC Bacillus subtilis ATCC 6633 [2] [µg/mL],MIC Candida albicans ATCC MYA-2876 [3] [µg/mL],MIC Candida glabrata ATCC 15126 [4] [µg/mL],MIC Candida krusei ATCC 6258 (Candida krusei ATCC 6258) [µg/mL],MIC Candida tropicalis ATCC 750 [5] [µg/mL],MIC Candida utilis ATCC 9950 (Candida utilis ATCC 9950) [µg/mL],MIC Corynebacterium ATCC 7715 [6] [µg/mL],MIC Enterococcus ATCC 29212 (Enterococcus ATCC 29212) [µg/mL],MIC Escherichia coli ATCC 25922 [7] [µg/mL],MIC Klebsiella pneumoniae ATCC 700603 [8] [µg/mL],MIC Pseudomonas aeruginosa ATCC 27853 [9] [µg/mL],MIC Salmonella typhimurium ATCC 14028 [10] [µg/mL],MIC Serratia marcescens ATCC 29021 [11] [µg/mL],MIC Staphylococcus aureus ATCC 25923 [12] [µg/mL],MIC Trichophyton ATCC MYA-4438 [13] [µg/mL],MIC Shigella flexneri ATCC 12022 [14] [µg/mL],Trypsin MIC [15] [µg/mL],Number of mice that died on each day after infection: day 4 ([16]; 1 mg/kg gavage) [Mouse],Number of mice that died on each day after infection: day 5 ([16]; 1 mg/kg gavage) [Mouse],other results
CC(=O)N[C@H](CCCNC(=N)N)C(=O)N[C@H](CCCCN)C(=O)N[C@H](CC(C)C)C(=O)N[C@H](CC(C)C)C(=O)N[C@H](Cc1ccccc1)C(=O)N[C@H](CCCNC(=N)N)C(=O)N[C@H](CC(C)C)C(=O)N[C@H](CCCCN)C(=O)N[C@H](Cc1ccc2ccccc2c1)C(=O)N[C@H](CCCNC(=N)N)C(=O)N[C@H](CCCCN)C(N)=O [LV-3] (Ac-[dR][dK][dL][dL][dF][dR][dL][dK][d2Nal][dR][dK]-NH2),1,2,8,16,16,8,8,4,4,1,2,4,1,4,2,16,2,1,1,0,"Number of mice that died on each day after infection: day 6 ([16]; 1 mg/kg gavage): 1 Mouse; Number of mice that died on each day after infection: day 7 ([16]; 1 mg/kg gavage): 2 Mouse; Number of mice that died on each day after infection: day 8 ([16]; 1 mg/kg gavage): 1 Mouse; Average survival times (Days) ([16]; 1 mg/kg gavage): 10.2*** Days; remaining at 12 h, 0.91 mg/mL [17]: 98.7%"
CC(=O)N[C@H](CCCNC(=N)N)C(=O)N[C@H](CCCCN)C(=O)N[C@H](CC(C)C)C(=O)N[C@H](CC(C)C)C(=O)N[C@H](Cc1ccc2ccccc2c1)C(=O)N[C@H](CCCNC(=N)N)C(=O)N[C@H](CC(C)C)C(=O)N[C@H](CCCCN)C(=O)N[C@H](Cc1ccccc1)C(=O)N[C@H](CCCNC(=N)N)C(=O)N[C@H](CCCCN)C(N)=O [LV-4] (Ac-[dR][dK][dL][dL][d2Nal][dR][dL][dK][dF][dR][dK]-NH2),1,4,8,8,16,16,8,2,2,2,4,2,2,2,1,8,4,1,0,1,"Number of mice that died on each day after infection: day 6 ([16]; 1 mg/kg gavage): 2 Mouse; Number of mice that died on each day after infection: day 7 ([16]; 1 mg/kg gavage): 2 Mouse; Number of mice that died on each day after infection: day 8 ([16]; 1 mg/kg gavage): 1 Mouse; Average survival times (Days) ([16]; 1 mg/kg gavage): 9.5** Days; remaining at 12 h, 0.91 mg/mL [17]: 98.7%"
CC(=O)N[C@H](CCCCN)C(=O)N[C@H](CCCCN)C(=O)N[C@H](CC(C)C)C(=O)N[C@H](CC(C)C)C(=O)N[C@H](Cc1ccc(Br)cc1)C(=O)N[C@H](CCCNC(=N)N)C(=O)N[C@H](CC(C)C)C(=O)N[C@H](CCCCN)C(=O)N[C@H](Cc1ccc(Br)cc1)C(=O)N[C@H](CCCNC(=N)N)C(=O)N[C@H](CCCCN)C(N)=O [LV-10] (Ac-[dK][dK][dL][dL][dPhe(4-Br)][dR][dL][dK][dPhe(4-Br)][dR][dK]-NH2),1,2,8,8,8,4,8,8,2,1,2,2,2,4,2,8,2,1,0,2,"Number of mice that died on each day after infection: day 6 ([16]; 1 mg/kg gavage): 2 Mouse; Number of mice that died on each day after infection: day 7 ([16]; 1 mg/kg gavage): 0 Mouse; Number of mice that died on each day after infection: day 8 ([16]; 1 mg/kg gavage): 1 Mouse; Average survival times (Days) ([16]; 1 mg/kg gavage): 10.0*** Days; remaining at 12 h, 0.91 mg/mL [17]: 98%"
CCCC[C@@H](NC(=O)[C@@H](CCCCN)NC(=O)[C@@H](CCCNC(=N)N)NC(C)=O)C(=O)N[C@H](CCCC)C(=O)N[C@H](Cc1ccc2ccccc2c1)C(=O)N[C@H](CCCNC(=N)N)C(=O)N[C@H](CCCC)C(=O)N[C@H](CCCCN)C(=O)N[C@H](Cc1ccc2ccccc2c1)C(=O)N[C@H](CCCNC(=N)N)C(=O)N[C@H](CCCCN)C(N)=O [LV-12] (Ac-[dR][dK][dNle][dNle][d2Nal][dR][dNle][dK][d2Nal][dR][dK]-NH2),1,8,8,4,4,8,16,2,4,1,2,1,4,2,1,16,4,1,0,1,"Number of mice that died on each day after infection: day 4 ([16]; 0.2 mg/kg gavage): 1 Mouse; Number of mice that died on each day after infection: day 5 ([16]; 0.2 mg/kg gavage): 2 Mouse; Number of mice that died on each day after infection: day 6 ([16]; 0.2 mg/kg gavage): 2 Mouse; Number of mice that died on each day after infection: day 7 ([16]; 0.2 mg/kg gavage): 1 Mouse; Number of mice that died on each day after infection: day 8 ([16]; 0.2 mg/kg gavage): 0 Mouse; Average survival times (Days) ([16]; 0.2 mg/kg gavage): 8.9** Days; Number of mice that died on each day after infection: day 6 ([16]; 1 mg/kg gavage): 0 Mouse; Number of mice that died on each day after infection: day 7 ([16]; 1 mg/kg gavage): 2 Mouse; Number of mice that died on each day after infection: day 8 ([16]; 1 mg/kg gavage): 1 Mouse; Average survival times (Days) ([16]; 1 mg/kg gavage): 11.1**** Days; Number of mice that died on each day after infection: day 4 ([16]; 5 mg/kg gavage): 0 Mouse; Number of mice that died on each day after infection: day 5 ([16]; 5 mg/kg gavage): 2 Mouse; Number of mice that died on each day after infection: day 6 ([16]; 5 mg/kg gavage): 1 Mouse; Number of mice that died on each day after infection: day 7 ([16]; 5 mg/kg gavage): 1 Mouse; Number of mice that died on each day after infection: day 8 ([16]; 5 mg/kg gavage): 0 Mouse; Average survival times (Days) ([16]; 5 mg/kg gavage): 10.7*** Days; survival time of mice infected with Escherichia coli ([16]; gavage, observed 14 d): superior to those of the Levofloxacin group; remaining at 12 h, 0.91 mg/mL [17]: 97.5%"
